This note sets out measurements from paper PMC9643865, “Bromo-protopine, a novel protopine derivative, alleviates tau pathology by activating chaperone-mediated autophagy for Alzheimer’s disease therapy” (Frontiers in Molecular Biosciences, 2022).

Test [1] has as its target T1, HDAC6 (Homo sapiens, UniProt Q9UBN7).
T1 construct: purchased Enzo Life Sciences BML-AK516
T1 sequence (Q9UBN7 1-1215): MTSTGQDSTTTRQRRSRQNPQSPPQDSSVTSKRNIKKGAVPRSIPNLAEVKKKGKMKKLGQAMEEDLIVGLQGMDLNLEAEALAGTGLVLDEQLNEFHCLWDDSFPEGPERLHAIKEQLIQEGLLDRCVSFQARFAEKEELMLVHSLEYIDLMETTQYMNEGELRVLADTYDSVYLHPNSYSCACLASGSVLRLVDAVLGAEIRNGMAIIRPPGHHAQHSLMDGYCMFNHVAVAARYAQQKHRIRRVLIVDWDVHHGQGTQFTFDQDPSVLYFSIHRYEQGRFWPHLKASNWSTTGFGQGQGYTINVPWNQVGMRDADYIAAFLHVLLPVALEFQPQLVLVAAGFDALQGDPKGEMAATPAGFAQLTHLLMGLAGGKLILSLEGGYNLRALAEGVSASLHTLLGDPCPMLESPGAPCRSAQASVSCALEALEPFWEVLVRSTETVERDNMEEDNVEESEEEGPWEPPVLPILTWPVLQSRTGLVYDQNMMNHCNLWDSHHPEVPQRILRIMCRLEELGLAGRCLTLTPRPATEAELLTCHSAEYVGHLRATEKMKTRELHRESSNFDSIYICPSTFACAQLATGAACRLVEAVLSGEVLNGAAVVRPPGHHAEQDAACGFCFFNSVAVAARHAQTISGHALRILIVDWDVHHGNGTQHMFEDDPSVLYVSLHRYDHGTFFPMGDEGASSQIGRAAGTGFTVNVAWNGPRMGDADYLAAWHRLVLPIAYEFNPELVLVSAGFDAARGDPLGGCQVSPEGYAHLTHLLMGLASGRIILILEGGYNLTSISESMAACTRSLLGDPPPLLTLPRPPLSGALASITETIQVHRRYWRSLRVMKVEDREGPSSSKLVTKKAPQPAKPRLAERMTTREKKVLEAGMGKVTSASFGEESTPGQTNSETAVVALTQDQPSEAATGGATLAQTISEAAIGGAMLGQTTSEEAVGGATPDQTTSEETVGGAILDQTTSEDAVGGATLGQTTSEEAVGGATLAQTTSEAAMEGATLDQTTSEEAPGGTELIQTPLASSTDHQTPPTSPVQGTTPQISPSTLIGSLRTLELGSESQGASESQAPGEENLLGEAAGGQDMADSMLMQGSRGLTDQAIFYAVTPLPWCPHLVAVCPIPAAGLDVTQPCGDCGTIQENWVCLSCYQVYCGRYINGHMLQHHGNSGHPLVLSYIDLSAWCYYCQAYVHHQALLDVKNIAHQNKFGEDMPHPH
The test can be described thus: HDAC6 deacetylase fluorometric assay with pure HDAC6 protein. Format: biochemical. As to conditions: read-out: 50% inhibitory concentration (IC50) on HDAC6 activity. How it is done: Inhibition of HDAC6 activity was performed in accordance with the manufacturer’s protocol. Briefly, PRO-Br at various concentrations in HDAC Assay buffer II were prepared. The appropriate substrate solution provided in the kit was added, and the reaction plate was incubated at 37°C. The reaction was stopped by the addition of Developer II, and the fluorometric reading was measured at 440 nm using a fluorometer (Wallac EnVision).
HDAC6 is a cytoplasmic deacetylase that targets key proteins such as α-tubulin and HSP90. […] Therefore, inhibition of HDAC6 activity could be a promising therapeutic strategy for AD. […] To determine the binding of PRO/PRO-Br to HDAC6, we used molecular docking, and the binding affinity was determined from the binding free energies (Kcal/mol). From the docking study, the binding free energy of PRO-Br and PRO with HDAC6 was calculated to be −8.4 kcal/mol and −8.1 kcal/mol (Figures 5C–F), respectively.

In test [2] the test system is HT22 cells. The test can be described thus: LAMP2A / HSC70 immunocytochemistry and immunoblotting. The class given is cell-based, mouse. As to conditions: immunocytochemistry, 12.5 and 25 μM, 24 h. On the procedure:
SHSY5Y cells stably-expressing mutant tau (SHSYP301L) were cultured in DMEM/F12 + 15% FBS, 3 μg/ml Blasticidin S HCl, and 1X PSN. N2A mouse neuroblastoma and mouse hippocampal neuronal (HT22) cells were cultured in DMEM+10% FBS, and 1X PSN. Sterile complete medium containing PRO-Br was added to the cells, and they were then incubated for 24 h at an optimum temperature of 37°C in a sterile 5% CO2 incubator.
After PRO-Br treatment, cells were solubilised using cold RIPA lysis buffer (9803, Life Technologies), containing protease and phosphatase inhibitor tablets. Cells were sonicated and centrifuged at 14000 rpm for 15 min. Total protein concentration was determined by BCA protein assay, and the samples were separated on SDS-PAGE and transferred to PVDF membranes. The membranes were blocked, washed, and incubated with primary antibodies (Table 1), and incubated at 4°C, overnight. The membranes were further incubated with the required dilutions of secondary antibody for 1 h, at RT. The chemiluminescent signals were captured using x-ray film in a darkroom, with an appropriate chemiluminescent substrate kit (ThermoFisher Scientific, United States). Films were scanned, and the relative intensities of the signals were analyzed using ImageJ software.
HT22 cells were cultured in sterile 24-well culture dishes containing 14 mm cover-glass. Cells were treated with PRO-Br (12.5 and 25 μM), and DMSO (0.1%), for 24 h. Cells were fixed with paraformaldehyde (4%), permeabilized with triton-X-100 (0.1%), and blocked with BSA (2%). LAMP2A antibody (1:500), and HSC70 antibody (1:500) was added to the processed cells and incubated overnight at four°C. Alexa Fluor® 488 (green) and Alexa Fluor® 594 (red) secondary antibodies (1:400) were added and incubated for 1.5 h at room temperature. FluorSave reagent (Merck Millipore, United States) was added, then cover-slipped, and images were captured by a Leica confocal imaging system.
For orientation: In western blotting, separated proteins are transferred to a membrane and probed.

For `CN1CCc2cc3c(cc2C(=O)Cc2ccc4c(c2C1)OCO4)OCO3` [PRO, Protopine], in test [1], the IC50 was 2.36 µM. Also, in test [2], the “expression of LAMP2A” value is given as “did not enhance LAMP2A protein expression”.
